Laboratory results taken from PMC10987480, “Biological and mutational analyses of CXCR4–antagonist interactions and design of new antagonistic analogs” (Bioscience Reports, 2023).

Tests used:
CXCR4 T117A = target: T1, CXCR4 T117A (Homo sapiens, UniProt P61073, T117A); assay: Competitive binding to CXCR4 mutant T117A (12G5, CHO cells); conditions: TM3, class of reduction vs wild-type CXCR4, 12G5 competition, averages of at least three independent experiments
T1 construct: expressed in transfected cells
T1 sequence (P61073 whole entry T117A): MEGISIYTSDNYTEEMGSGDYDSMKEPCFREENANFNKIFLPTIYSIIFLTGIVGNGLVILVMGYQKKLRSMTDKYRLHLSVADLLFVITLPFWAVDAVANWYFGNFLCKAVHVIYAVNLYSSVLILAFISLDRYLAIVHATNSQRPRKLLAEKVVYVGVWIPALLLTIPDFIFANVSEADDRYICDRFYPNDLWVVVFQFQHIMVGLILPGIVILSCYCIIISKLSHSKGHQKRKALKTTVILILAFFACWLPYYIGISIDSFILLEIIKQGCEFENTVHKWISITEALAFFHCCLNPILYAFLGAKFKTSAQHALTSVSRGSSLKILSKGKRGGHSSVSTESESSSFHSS
Method: (§1) Plasmid pcDNA3-CXCR4 and mutated pcDNA3-CXCR4 were extracted and transfected into CHO cells using Lipofectamine 2000 according to the manufacturer’s guidelines. The selective medium containing G418 at a concentration of 1.2 mg/ml was applied to isolate stably transfected cells. CHO cells expressing wild-type CXCR4 and mutant CXCR4 were obtained using fluorescence-activated cell sorting (FACS).
(§2) All of the CXCR4 mutants were prepared using PCR technology. Briefly, pairs of asymmetrical primers containing the desired amino acid mutations (Supplementary Tables S1 and S2), each complementary to opposite strands of the pcDNA3–CXCR4, were designed for amplification by Q5® High-Fidelity DNA polymerase and the generation of mutated constructs. The methylated pcDNA3–CXCR4 templates were digested by DpnI. The mutated pcDNA3–CXCR4 was transformed into competent E. coli TOP10 for long-term storage and amplification.
(§3) The procedure for the CXCR4 competitive binding experiments was published previously. Briefly, CXCR4 antibody 12G5 (250 ng/ml) was incubated with 5 × 10^5 cells and varying concentrations of unlabeled compounds in a final volume of 100 μl of assay buffer (PBS with 0.5% BSA and 0.05% NaN3) in 96-well plates for 40 min on ice, after being washed with assay buffer once. The cells were incubated with FITC-conjugated second antibody IgG for 30 min on ice, then washed with assay buffer three times. The fluorescence intensity was measured for excitation at 485 nm and emission at 535 nm using multimode plate reader (PerkinElmer). The IC50 values were calculated using graphpad Prism 7. Experiments were performed at least three times.

CXCR4 D171A = target: T2, CXCR4 D171A (Homo sapiens, UniProt P61073, D171A); assay: Competitive binding to CXCR4 mutant D171A (12G5, CHO cells); conditions: TM4, class of reduction vs wild-type CXCR4, 12G5 competition, averages of at least three independent experiments
T2 construct: expressed in transfected cells
T2 sequence (P61073 whole entry D171A): as the sequence (P61073 whole entry T117A) above, with A117T, D171A counted along it
Method: as §1, §2, §3

CXCR4 [1] = conditions: cited from earlier work
From the text: To understand the receptor–ligand recognition mechanism involving CXCR4 and its antagonists, here in this study we conducted a series of comparative analyses of the biological activities and CXCR4 binding sites of eleven known CXCR4 antagonists, including the three mentioned above, using cell-based bioassays, CXCR4 site-directed mutagenesis and computer-aided molecular modeling. These antagonists studied here were chosen from different representative structural types including both D-peptides (i.e., HC4319, DV1, DV1 dimer, and DV3) and a representative counterpart L-peptide (i.e., V1) derived ...

CXCR4 F87A = target: T3, CXCR4 F87A (Homo sapiens, UniProt P61073, F87A); assay: Competitive binding to CXCR4 mutant F87A (12G5, CHO cells); conditions: TM2, class of reduction vs wild-type CXCR4, 12G5 competition, averages of at least three independent experiments
T3 construct: expressed in transfected cells
T3 sequence (P61073 whole entry F87A): as the sequence (P61073 whole entry T117A) above, with F87A, A117T counted along it
Method: as §1, §2, §3

CXCR4 Y45A = target: T4, CXCR4 Y45A (Homo sapiens, UniProt P61073, Y45A); assay: Competitive binding to CXCR4 mutant Y45A (12G5, CHO cells); conditions: TM1, class of reduction vs wild-type CXCR4, 12G5 competition, averages of at least three independent experiments
T4 construct: expressed in transfected cells
T4 sequence (P61073 whole entry Y45A): as the sequence (P61073 whole entry T117A) above, with Y45A, A117T counted along it
Method: as §1, §2, §3

CXCR4 [2] = target: CXCR4 (Homo sapiens, UniProt P61073); assay: Competitive CXCR4 binding assay (12G5 antibody probe), wild-type CXCR4 transfected CHO cells; parameters: expressed in transfected cells; Competitive receptor binding activity, wild-type CXCR4 (WT): key to the marks not given beside the values; conditions: class relative to wild-type; 12G5 competition, stably transfected CHO cells; averages of at least three independent experiments
Sequence of CXCR4 (Homo sapiens, UniProt P61073) (P61073 whole entry): as the sequence (P61073 whole entry T117A) above, with A117T counted along it
Method: The CXCR4-specific antibody, 12G5 was used as a probe for the competitive CXCR4 binding assay to evaluate the binding activity of CXCR4 antagonists.
Figure 1 Competitive CXCR4 binding curves of eleven CXCR4 antagonists The CXCR4 transfected CHO cells were incubated with different concentrations of antagonists and 250 ng/ml 12G5 antibody. The CXCR4-binding 12G5 antibody was recognized by FITC-conjugated anti-IgG second antibody. The cells treated with only second antibody were used as a negative control (0%) while cells treated with both 12G5 antibody and second antibody were used as a positive control (100%). Cells treated with CXCR4 antagonists were calculated in percentage relative to the positive and negative controls. The data were averages of at least three independent experiments and shown as mean ± standard error of the mean (S.E.M.).
as §3

CXCR4 Q200A = target: T5, CXCR4 Q200A (Homo sapiens, UniProt P61073, Q200A); assay: Competitive binding to CXCR4 mutant Q200A (12G5, CHO cells); parameters: key to the marks not given beside the values; conditions: TM5, class of reduction vs wild-type CXCR4, 12G5 competition, averages of at least three independent experiments
T5 construct: expressed in transfected cells
T5 sequence (P61073 whole entry Q200A): as the sequence (P61073 whole entry T117A) above, with A117T, Q200A counted along it
Method: as §1, §2, §3

CXCR4 Y116A = target: T6, CXCR4 Y116A (Homo sapiens, UniProt P61073, Y116A); assay: Competitive binding to CXCR4 mutant Y116A (12G5, CHO cells); conditions: TM3, class of reduction vs wild-type CXCR4, 12G5 competition, averages of at least three independent experiments
T6 construct: expressed in transfected cells
T6 sequence (P61073 whole entry Y116A): as the sequence (P61073 whole entry T117A) above, with Y116A, A117T counted along it
Method: as §1, §2, §3

CXCR4 W195A = target: T7, CXCR4 W195A (Homo sapiens, UniProt P61073, W195A); assay: Competitive binding to CXCR4 mutant W195A (12G5, CHO cells); conditions: TM4, class of reduction vs wild-type CXCR4, 12G5 competition, averages of at least three independent experiments
T7 construct: expressed in transfected cells
T7 sequence (P61073 whole entry W195A): as the sequence (P61073 whole entry T117A) above, with A117T, W195A counted along it
Method: as §1, §2, §3

CXCR4 N119A = target: T8, CXCR4 N119A (Homo sapiens, UniProt P61073, N119A); assay: Competitive binding to CXCR4 mutant N119A (12G5, CHO cells); conditions: TM3, class of reduction vs wild-type CXCR4, 12G5 competition, averages of at least three independent experiments
T8 construct: expressed in transfected cells
T8 sequence (P61073 whole entry N119A): as the sequence (P61073 whole entry T117A) above, with A117T, N119A counted along it
Method: as §1, §2, §3

CXCR4 I259A = target: T9, CXCR4 I259A (Homo sapiens, UniProt P61073, I259A); assay: Competitive binding to CXCR4 mutant I259A (12G5, CHO cells); parameters: key to the marks not given beside the values; conditions: TM6, class of reduction vs wild-type CXCR4, 12G5 competition, averages of at least three independent experiments
T9 construct: expressed in transfected cells
T9 sequence (P61073 whole entry I259A): as the sequence (P61073 whole entry T117A) above, with A117T, I259A counted along it
Method: as §1, §2, §3

CXCR4 W94A = target: T10, CXCR4 W94A (Homo sapiens, UniProt P61073, W94A); assay: Competitive binding to CXCR4 mutant W94A (12G5, CHO cells); conditions: TM2, class of reduction vs wild-type CXCR4, 12G5 competition, averages of at least three independent experiments
T10 construct: expressed in transfected cells
T10 sequence (P61073 whole entry W94A): as the sequence (P61073 whole entry T117A) above, with W94A, A117T counted along it
Method: as §1, §2, §3

CXCR4 D262N = target: T11, CXCR4 D262N (Homo sapiens, UniProt P61073, D262N); assay: Competitive binding to CXCR4 mutant D262N (12G5, CHO cells); conditions: TM6, class of reduction vs wild-type CXCR4, 12G5 competition, averages of at least three independent experiments
T11 construct: expressed in transfected cells
T11 sequence (P61073 whole entry D262N): as the sequence (P61073 whole entry T117A) above, with A117T, D262N counted along it
Method: as §1, §2, §3

Competitive receptor binding activity, CXCR4 T117A (CXCR4 T117A) | Competitive receptor binding activity, wild-type CXCR4 (WT) (CXCR4 [2]) | Competitive receptor binding activity, CXCR4 Q200A (CXCR4 Q200A) | Competitive receptor binding activity, CXCR4 N119A (CXCR4 N119A) | Competitive receptor binding activity, CXCR4 I259A (CXCR4 I259A) | Competitive receptor binding activity, CXCR4 D262N (CXCR4 D262N) | Compound | Competitive receptor binding activity, CXCR4 D171A (CXCR4 D171A) | Potency (in words) (CXCR4 [1]) | Competitive receptor binding activity, CXCR4 F87A (CXCR4 F87A) | Competitive receptor binding activity, CXCR4 Y45A (CXCR4 Y45A) | Competitive receptor binding activity, CXCR4 Y116A (CXCR4 Y116A) | Competitive receptor binding activity, CXCR4 W195A (CXCR4 W195A) | Competitive receptor binding activity, CXCR4 W94A (CXCR4 W94A)
+++ | +++ | +++ | +++ | +++ | – | c1cc(CN2CCCNCCNCCCNCC2)ccc1CN1CCCNCCNCCCNCC1 [AMD3100] | + (30–60% reduction compared with wild-type CXCR4) | submicromolar | ++ (10–29% reduction compared with wild-type CXCR4) | ++ (10–29% reduction compared with wild-type CXCR4) | ++ (10–29% reduction compared with wild-type CXCR4) | +++ | –
+++ | +++ | +++ | +++ | +++ | +++ | NCCCCN(Cc1nc2ccccc2[nH]1)[C@H]1CCCc2cccnc21 [AMD11070] | + (30–60% reduction compared with wild-type CXCR4) | nanomolar potent | + (30–60% reduction compared with wild-type CXCR4) | ++ (10–29% reduction compared with wild-type CXCR4) | +++ | ++ (10–29% reduction compared with wild-type CXCR4) | ++ (10–29% reduction compared with wild-type CXCR4)
